Series [1] can be described thus: Caco-2 Permeability Assay (bidirectional). The format is in vitro ADME. The conditions noted are these: human; for recovery at 120 min, 1 μM / Papp A→B at 120 min, 1 μM / Papp B→A at 120 min, 1 μM: pH 7.4; for efflux ratio at 120 min, 1 µM / Papp A→B at 120 min, 1 μM / Papp B→A at 120 min, 1 μM / permeability class (Low/High absorption potential) at 120 min, 1 µM: Caco-2; for efflux ratio at 120 min, 1 µM: (Papp B→A)/(Papp A→B); for Papp A→B at 120 min, 1 μM: Direction A→B; for Papp A→B at 120 min, 1 μM / Papp B→A at 120 min, 1 μM: unit not given (thresholds in 10^−6 cm/s); for Papp B→A at 120 min, 1 μM: Direction B→A; for permeability class (Low/High absorption potential) at 120 min, 1 µM: read-out: Permeability Classification. The text has this: (§1) Caco-2 cells are commonly used in a confluent monolayer on a cell culture insert filter. When cultured in this format and under specific conditions, the cells become differentiated and polarized such that their phenotype, morphologically and functionally resembles the enterocytes lining the small intestine. The cell monolayer provides a physical and biochemical barrier to the passage of small molecules, and is widely used across the pharmaceutical industry as an in vitro model of the human small intestinal mucosa to predict the absorption of orally administered drugs (Hidalgo et al., Gastroenterology, 1989; Artursson, J. Pharm. Sci., 1990). The correlation between the in vitro apparent permeability (P ? app) across Caco-2 monolayers and the in vivo absorption is well established (Artursson et al., Biochem. Biophys. Res. Comm., 1991).
(§2) The present assay was used to determine the bidirectional permeability of the compounds of the invention through Caco-2 cell monolayers. Caco-2 cells were grown in confluent monolayers where the media of both the apical (A) and basolateral (B) sides were at pH 7.4. Compounds were dosed at 1 μM in the presence of 200 μM Lucifer Yellow, on the apical side (A→B) or the basolateral side (B→A) for assessment, in duplicate.
(§3) The absorption potential of compounds were classified as either Low (P-app <1×10^−6 cm/s) or High (P-app >1×10^−6 cm/s).
On the technique in general: Caco-2 monolayers are a common model of the intestinal barrier.

The next series relates to Caco-2 cell monolayers. In words: Caco-2 Permeability Assay (bidirectional). It counts as in vitro ADME.
Source text: as §1, §2, §3

Series [2] in a line: Solubility (18 hr vortex mixing at room temperature, filtration, HPLC). It counts as physicochemical. To be noted: thermodynamic from solid. As for the experimental part:
Ca. 1 mg portions of test article were combined with 120 μL solvent in wells of a 96×2 mL polypropylene plate. […] The contents of all wells were then filtered through a 0.45 μm GHP filter plate to yield clear filtrates. 5 μL of each filtrate was diluted into 100 μL DMF and vortex mixed to yield HPLC samples. Duplicate quantitation standards for each test article were prepared by diluting weighed portions of solid test article in measured volumes of DMF. 2 μL of each HPLC sample and quantitation standard were analyzed by HPLC using the method outlined in Table 5. Dissolved test article concentrations were calculated by peak area ratio against the appropriate quantitation standards.

The test system of another series is P493-6 (myc "on") cells. Put plainly: Cell Proliferation Assay (72 hrs, Cell Titer Glo or Viacount FACS). It counts as cell-based. The conditions noted are these: read-out: Cell prolif P493 72h IC50; P493-6 cells, 72 h. As to the method: P493-6 (myc “on”) cells were maintained in growth media (RPMI-1640, 10% FBS, 2 mM glutamine, 100 units/ml Penicillin and 100 μg/ml streptomycin) at 37° C. with 5% CO2. For compound assay, P493-6 cells were plated in 96-well V-bottom plates on the day of compound addition in 50 μl of growth media at a cell density of 200,000 cells/ml (10,000 cells/well). Compounds were serially diluted in 100% DMSO at 200-times the final concentration. Compounds were diluted 100-fold into growth media and then 50 μl of this mixture was added to cell plates making the final concentration of DMSO 0.5%. Cells were incubated with compound for 72 hrs at 37° C. with 5% CO2 and analyzed for antiproliferative effects either by Cell Titer Glo (Promega) or FACS analysis using the Viacount (Millipore) kit on the Guava instrument.
In general terms: ATP-based viability assays read luminescence as a measure of living cells.

Where [3] appears, read: 50 mM citrate buffer pH 2.3, 20 °C, aqueous buffer, 50 mM Cit pH 2.3, room temperature.
Where [4] appears, read: 50 mM citrate buffer pH 3.3, 20 °C, aqueous buffer, 50 mM Cit pH 3.3, room temperature.
[5] abbreviates: 50 mM citrate buffer pH 4.4, 20 °C, aqueous buffer, 50 mM Cit pH 4.4, room temperature.
[6] abbreviates: 50 mM citrate buffer pH 5.4, 20 °C, aqueous buffer, 50 mM Cit pH 5.4, room temperature.
[7] abbreviates: 20 °C, aqueous buffer, PBS, room temperature.
Where [8] appears, read: 20 °C, aqueous with cosolvent or surfactant or cyclodextrin, 10% CrEL/50 mM cit, room temperature.
[9] abbreviates: 20 °C, aqueous with cosolvent or surfactant or cyclodextrin, 10% PS80/50 mM cit, room temperature.
Setting [10] is: 20 °C, aqueous with cosolvent or surfactant or cyclodextrin, 20% HPBCD/50 mM cit, room temperature.
[11] abbreviates: 20 °C, aqueous with cosolvent or surfactant or cyclodextrin, 20% SBECD/50 mM cit, room temperature.
The mark [12] stands for this setting: 20 °C, oil or lipid, Capryol 90, room temperature.
[13] abbreviates: 20 °C, oil or lipid, Capryol PGMC, room temperature.
Where [14] appears, read: 20 °C, oil or lipid, Labrasol, room temperature.
Where [15] appears, read: 20 °C, oil or lipid, canola oil, room temperature.
The mark [16] stands for this setting: 20 °C, organic solvent or mixture, EtOH, room temperature.
[17] abbreviates: 20 °C, organic solvent or mixture, PEG400, room temperature.
Setting [18] is: 20 °C, organic solvent or mixture, PG, room temperature.
Setting [19] is: 20 °C, pH 1, simulated gastric fluid, 0.1M HCl, room temperature.
[20] abbreviates: 20 °C, pH 13, aqueous buffer, 0.1M NaOH, room temperature.
The mark [21] stands for this setting: 20 °C, saline or isotonic, 0.9% NaCl, room temperature.
Where [22] appears, read: water, room temperature (ca. 20 C).

≈ marks a conversion by molar mass, not a printed value.

For orientation: efflux ratio means the permeability from basolateral to apical divided by that in the opposite direction, in the common usage. What is called Papp A→B is the apparent permeability from the apical to the basolateral side of a cell layer. A high value points to fast passage. The term Papp B→A denotes the apparent permeability from the basolateral to the apical side of a cell layer. For orientation: solubility means how much of the substance goes into solution per volume. As for `O=C(Cc1ccccc1)Nc1ccc(CCCCc2nnc(NC(=O)Cc3ccccc3)s2)nn1` [Compound 295], the recovery at 120 min, 1 μM in series [1] (Caco-2, pH 7.4, Direction A→B) is 89%; in series [1] (Caco-2, pH 7.4, Direction B→A) it was 96%. Besides, in series [1], the efflux ratio at 120 min, 1 µM is 7.3. The Papp A→B at 120 min, 1 μM in series [1] stood at 8.17 ×10⁻⁶ cm/s. The compound further displayed a Papp B→A at 120 min, 1 μM in series [1] of 59.8 ×10⁻⁶ cm/s. Besides, the permeability class (Low/High absorption potential) at 120 min, 1 µM in series [1] was above 1 ×10⁻⁶ cm/s. For the same compound, the “Significant Efflux” value with Caco-2 cell monolayers is given as “Yes (efflux ratios being significant when greater than or equal to 3 when the Papp (B→A) was greater than or equal to 1×10^−6 cm/s)”. Also, the solubility at 18 h was below 2 µg/mL in series [2] (setting [3]); below 2 µg/mL in series [2] (setting [4]); below 2 µg/mL in series [2] (setting [5]); below 2 µg/mL in series [2] (setting [6]); below 2 µg/mL in series [2] (setting [7]); 55 µg/mL (≈ 113 µM) in series [2] (setting [8]). The solubility at 18 h in series [2] (setting [9]) came to 27 µg/mL (≈ 55.5 µM); in series [2] (setting [10]), 167 µg/mL (≈ 343 µM); in series [2] (setting [11]), 90 µg/mL (≈ 185 µM); in series [2] (setting [12]), 215 µg/mL (≈ 442 µM); in series [2] (setting [13]) it was 1540 µg/mL (≈ 3160 µM); in series [2] (setting [14]) it was 918 µg/mL (≈ 1890 µM). Moreover, the solubility at 18 h in series [2] (setting [15]) is below 2 µg/mL; in series [2] (setting [16]), 83 µg/mL (≈ 171 µM); in series [2] (setting [17]) it was 1640 µg/mL (≈ 3380 µM); in series [2] (setting [18]) it was 234 µg/mL (≈ 481 µM); in series [2] (setting [19]), 3 µg/mL (≈ 6.17 µM); in series [2] (setting [20]) it was 268 µg/mL (≈ 551 µM). Moreover, the solubility at 18 h in series [2] (setting [21]) and in series [2] (setting [22]) was below 2 µg/mL throughout.
`O=C(Cc1cccc(OC(F)(F)F)c1)Nc1ccc(CCCCc2nnc(NC(=O)Cc3ccccc3)s2)nn1` [Compound 585]: the recovery at 120 min, 1 μM came out at 42% in series [1] (Caco-2, pH 7.4, Direction A→B) and 53% in series [1] (Caco-2, pH 7.4, Direction B→A). For the same compound, the efflux ratio at 120 min, 1 µM in series [1] came out at 3.1. The Papp A→B at 120 min, 1 μM in series [1] was determined as 7.52 ×10⁻⁶ cm/s. The Papp B→A at 120 min, 1 μM in series [1] was 23.4 ×10⁻⁶ cm/s. Further, the permeability class (Low/High absorption potential) at 120 min, 1 µM in series [1] is above 1 ×10⁻⁶ cm/s. Further, in the series on Caco-2 cell monolayers, the “Significant Efflux” value is “Yes (efflux ratios being significant when greater than or equal to 3 when the Papp (B→A) was greater than or equal to 1×10^−6 cm/s)”. Moreover, the solubility at 18 h in series [2] (setting [3]) was below 2 µg/mL; in series [2] (setting [4]), below 2 µg/mL; in series [2] (setting [5]) it was below 2 µg/mL; in series [2] (setting [6]), below 2 µg/mL; in series [2] (setting [7]), below 2 µg/mL; in series [2] (setting [8]), 228 µg/mL (≈ 400 µM). In addition, the solubility at 18 h came out at 261 µg/mL (≈ 457 µM) in series [2] (setting [9]); 327 µg/mL (≈ 573 µM) in series [2] (setting [10]); 125 µg/mL (≈ 219 µM) in series [2] (setting [11]); 1740 µg/mL (≈ 3060 µM) in series [2] (setting [12]); 1780 µg/mL (≈ 3120 µM) in series [2] (setting [13]); 5000 µg/mL (≈ 8770 µM) in series [2] (setting [14]). Besides, the solubility at 18 h in series [2] (setting [15]) is 72 µg/mL (≈ 126 µM); in series [2] (setting [16]), 1990 µg/mL (≈ 3490 µM); in series [2] (setting [17]), 3940 µg/mL (≈ 6910 µM); in series [2] (setting [18]), 1420 µg/mL (≈ 2490 µM); in series [2] (setting [19]) it was below 2 µg/mL; in series [2] (setting [20]), 192 µg/mL (≈ 336 µM). In addition, the solubility at 18 h in series [2] (setting [21]) and in series [2] (setting [22]) was below 2 µg/mL each time.
The IC50 is the midpoint of a concentration-inhibition curve. For the compound `O=C(Cc1cccc(CN2CCNCC2)c1)Nc1nnc(CCCCc2nnc(NC(=O)Cc3cccc(CN4CCNCC4)c3)s2)s1` [Compound 276], in the series on P493-6 (myc "on") cells, the IC50 was determined as 56 µM.
Turning to `O=C(Cc1cccc(OC(F)(F)F)c1)Nc1ccc(CCCCc2nnc(NC(=O)[C@@H](O)c3ccccc3)s2)nn1` [Compound 703], the recovery at 120 min, 1 μM is 51% in series [1] (Caco-2, pH 7.4, Direction A→B) and 66% in series [1] (Caco-2, pH 7.4, Direction B→A). Besides, the efflux ratio at 120 min, 1 µM in series [1] came to 6.6. The compound further returned a Papp A→B at 120 min, 1 μM in series [1] of 6.26 ×10⁻⁶ cm/s. Further, the Papp B→A at 120 min, 1 μM in series [1] was 41 ×10⁻⁶ cm/s. Further, in series [1], the permeability class (Low/High absorption potential) at 120 min, 1 µM was above 1 ×10⁻⁶ cm/s. For the same compound, the “Significant Efflux” value in the series on Caco-2 cell monolayers was “Yes (efflux ratios being significant when greater than or equal to 3 when the Papp (B→A) was greater than or equal to 1×10^−6 cm/s)”. Moreover, the solubility at 18 h was below 4 µg/mL in series [2] (setting [3]); below 4 µg/mL in series [2] (setting [4]); below 4 µg/mL in series [2] (setting [5]); below 4 µg/mL in series [2] (setting [6]); below 4 µg/mL in series [2] (setting [7]); 309 µg/mL (≈ 527 µM) in series [2] (setting [8]). Also, the solubility at 18 h in series [2] (setting [9]) amounted to 378 µg/mL (≈ 644 µM); in series [2] (setting [10]), 651 µg/mL (≈ 1110 µM); in series [2] (setting [11]) it was 476 µg/mL (≈ 811 µM); in series [2] (setting [12]), 7410 µg/mL (≈ 12600 µM); in series [2] (setting [13]) it was 3680 µg/mL (≈ 6280 µM); in series [2] (setting [14]), 20700 µg/mL (≈ 35300 µM). The solubility at 18 h in series [2] (setting [15]) is 14 µg/mL (≈ 23.9 µM); in series [2] (setting [16]), 2640 µg/mL (≈ 4510 µM); in series [2] (setting [17]), 22400 µg/mL (≈ 38200 µM); in series [2] (setting [18]) it was 4700 µg/mL (≈ 8010 µM); in series [2] (setting [19]), below 4 µg/mL; in series [2] (setting [20]), 656 µg/mL (≈ 1120 µM). Further, the solubility at 18 h in series [2] (setting [21]) and in series [2] (setting [22]) was below 4 µg/mL in each case.

(Values after patent publication US8604016B2, “Heterocyclic inhibitors of glutaminase” (Calithera Biosciences Inc., priority 2011, dated 2013).)
